# Patent US12240841B2, “FXR small molecule agonist and preparation method therefor and use thereof” (Shanghai Institute of Materia Medica, Chinese Academy of …, priority 2019, dated 2025)
# Read-outs that look alike come from different tables or passages of the source.
# Legend:
# [1] = target: T1, recombinant GST-FXR fusion protein (Homo sapiens, UniProt Q96RI1); experiment: FXR activity at the molecular level (AlphaScreen); type: biochemical
# T1 sequence (Q96RI1 1-486): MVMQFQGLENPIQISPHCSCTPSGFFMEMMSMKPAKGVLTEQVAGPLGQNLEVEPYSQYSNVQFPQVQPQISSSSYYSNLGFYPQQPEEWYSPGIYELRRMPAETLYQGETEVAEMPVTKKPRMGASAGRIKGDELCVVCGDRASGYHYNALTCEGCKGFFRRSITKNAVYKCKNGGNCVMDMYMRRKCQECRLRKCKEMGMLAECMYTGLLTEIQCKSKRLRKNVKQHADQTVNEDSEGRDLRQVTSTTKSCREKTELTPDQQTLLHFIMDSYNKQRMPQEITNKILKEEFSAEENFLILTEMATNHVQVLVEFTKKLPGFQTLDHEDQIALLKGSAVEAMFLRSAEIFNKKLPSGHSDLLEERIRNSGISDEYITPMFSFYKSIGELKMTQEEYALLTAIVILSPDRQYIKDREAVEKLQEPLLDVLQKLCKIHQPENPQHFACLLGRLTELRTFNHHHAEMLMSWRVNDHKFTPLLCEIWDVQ
# Description: Test Method for FXR Activity at the Molecular Level
# FXR activity was determined using recombinant GST-FXR fusion protein by Perkin Elmer's AlphaScreen detection reagent. The reaction in this method was carried out in a 384-well plate, and the total reaction volume was 15 μL. The mixture of protein, agonist, co-regulatory factor, AlphaScreen® acceptor beads and AlphaScreen® donor beads was reacted in a buffer containing Tris-HCl 50 mM (pH7.4), 50 mM NaCl, BSA 0.1%, and 1 mM DTT. The FXR activity was reflected by the fluorescence signal intensity at 570 nm wavelength detected by the Envision fluorescence detector. The value of EC50 was calculated by the software Graphpad Prism 5.
# [2] = target: T2, FXR receptor (Homo sapiens, UniProt Q96RI1); experiment: FXR activity at the cell level (FXRE luciferase reporter in 293T cells); type: cell-based; details: for Activity relative to OCA (%) 10 μM: luciferase reporter
# T2 construct: expressed in transfected cells; host or cells: 293T cells
# T2 sequence (Q96RI1 1-486): T1 sequence (Q96RI1 1-486)
# Description: The cells were cultured for 24 hours to ensure plasmid expression. Then the FXR receptor agonist to be tested was added and acted for 18 hours. The fluorescence intensity was detected using luciferase kit (steady-Glo Luciferase Assay system) to reflect the compound's activation efficiency on the FXR receptor. […] The appropriate concentration interval was selected, and the dose-dependent relationship, that is, the EC50 value, was calculated.
# [3] = 293T cells, FXRE luciferase reporter, read-out: EC50 (cell level)
SMILES,EC50 [1],Activity relative to OCA (%) 10 μM ([2]; 293T cells),"EC50 [2, 3]",EC50 [2]
CC(C)c1onc(-c2c(Cl)cccc2Cl)c1COC1CCN(c2ccc(-c3noc(=O)[nH]3)cc2)CC1 [Example 11],439 nM,164%,0.7 nM,
O=c1[nH]c(-c2ccc(N3CCC(OCc4c(-c5c(Cl)cccc5Cl)noc4C4CC4)CC3)nc2)no1 [Example 13],178 nM,111%,0.7 nM,
O=c1[nH]c(-c2ccc(N3CCC(OCc4c(-c5ccccc5C(F)(F)F)noc4C4CC4)CC3)nc2)no1 [Example 21],96.7 nM,117%,1.32 nM,
O=c1[nH]c(-c2c(F)cc(N3CCC(OCc4c(-c5c(Cl)cccc5Cl)noc4C4CC4)CC3)cc2F)no1 [Example 17],257 nM,161%,0.3 nM,
O=c1[nH]c(-c2ccc(N3CCC(OCc4c(-c5ccccc5OC(F)(F)F)noc4C4CC4)CC3)cn2)no1 [Example 27],20.9 nM,106%,0.357 nM,
O=c1[nH]c(-c2ccc(N3CCC(OCc4c(-c5ccccc5C(F)(F)F)noc4C4CC4)CC3)c(F)c2)no1 [Example 23],392 nM,109%,2.22 nM,
Cc1cc(-c2noc(=O)[nH]2)ccc1N1CCC(OCc2c(-c3c(Cl)cccc3Cl)noc2C2CC2)CC1 [Example 15],2650 nM,159%,3 nM,
O=c1[nH]c(-c2ccc(N3CCC(OCc4c(-c5c(Cl)cccc5Cl)noc4C4CC4)CC3)cn2)no1 [Example 14],598 nM,74%,5 nM,
O=c1[nH]c(-c2ccc(N3C4CCC3CC(OCc3c(-c5ccccc5C(F)(F)F)noc3C3CC3)C4)cc2F)no1 (stereo not drawn) [Example 37],50.6 nM,102%,0.284 nM,
O=c1[nH]c(-c2ccc(N3C4CCC3CC(OCc3c(-c5c(F)cccc5F)noc3C3CC3)C4)nc2)no1 (stereo not drawn) [Example 31],11.3 nM,116%,0.608 nM,
O=c1[nH]c(-c2ccc(N3CCCC(OCc4c(-c5c(Cl)cccc5Cl)noc4C4CC4)CC3)cc2)no1 (stereo not drawn) [Example 4],15 nM,97%,0.6 nM,
O=c1[nH]c(-c2ccc(N3C4CCC3CC(OCc3c(-c5c(Cl)cccc5Cl)noc3C3CC3)C4)cc2F)no1 (stereo not drawn) [Example 36],4.22 nM,102%,,0.0317 nM
O=c1[nH]c(-c2ccc(N3CCC(OCc4c(-c5c(Cl)cccc5Cl)noc4C4CC4)CC3)cc2)no1 [Example 2],72 nM,174%,1 nM,
O=c1[nH]c(-c2ccc(N3CCC(OCc4c(-c5ccccc5C(F)(F)F)noc4C4CC4)CC3)cn2)no1 [Example 22],386 nM,108%,1.99 nM,
O=c1[nH]c(-c2ccc(N3CCC(OCc4c(-c5ccccc5OC(F)(F)F)noc4C4CC4)CC3)nc2)no1 [Example 26],70 nM,103%,0.254 nM,
O=c1[nH]c(-c2ccc(N3CCC(OCc4c(-c5ccccc5OC(F)(F)F)noc4C4CC4)CC3)cc2)no1 [Example 9],55 nM,90%,4 nM,
O=c1[nH]c(-c2cccc(N3CCC(OCc4c(-c5c(Cl)cccc5Cl)noc4C4CC4)C3)c2)no1 (stereo not drawn) [Example 5],4700 nM,83%,844 nM,
O=c1[nH]c(-c2ccc(N3C4CCC3CC(OCc3c(-c5ccccc5OC(F)F)noc3C3CC3)C4)nc2)no1 (stereo not drawn) [Example 39],25 nM,108%,1.49 nM,
O=c1[nH]c(-c2cccc(N3CCCC(OCc4c(-c5c(Cl)cccc5Cl)noc4C4CC4)CC3)c2)no1 (stereo not drawn) [Example 3],1810 nM,87%,14 nM,
O=c1[nH]c(-c2ccc(N3C4CCC3CC(OCc3c(-c5c(F)cccc5F)noc3C3CC3)C4)cc2F)no1 (stereo not drawn) [Example 35],18.5 nM,117%,0.318 nM,
